According to PMC8429728, “TNK1 is a ubiquitin-binding and 14-3-3-regulated kinase that can be targeted to block tumor growth” (Nature Communications, 2021):
Like-named read-outs stand apart in the source and are kept apart here.

Experiments:
Assay in all cases: biochemical
Design in all cases: Reaction Biology 371-kinase panel at Km ATP, per cent enzyme activity relative to DMSO, single dose in duplicate
[1] = molecular target: ALK (Homo sapiens, UniProt Q9UM73); conditions: duplicate measurements, Km ATP
Method in brief: (§1)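 Compound screened at 300 nM in vitro across a 371-kinase panel. Enzyme activity expressed as % of DMSO controls. IC50 values came from sigmoidal variable-slope dose-response fits with the bottom fixed at 0.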

[2] = molecular target: BTK (Homo sapiens, UniProt Q06187); conditions: duplicate measurements, Km ATP
Method in brief: as §1

[3] = molecular target: SLK/STK2 (Homo sapiens, UniProt Q9H2G2); conditions: duplicate measurements, Km ATP
Method in brief: as §1

[4] = molecular target: T1, DCAMKL1 (Homo sapiens, UniProt O15075); conditions: duplicate measurements, Km ATP
T1 construct: gene DCLK1
Method in brief: as §1

[5] = molecular target: ROCK1 (Homo sapiens, UniProt Q13464); conditions: duplicate measurements, Km ATP
Method in brief: as §1

[6] = molecular target: PLK2 (Homo sapiens, UniProt Q9NYY3); conditions: duplicate measurements, Km ATP
Method in brief: as §1

[7] = molecular target: MLCK2/MYLK2 (Homo sapiens, UniProt Q9H1R3); conditions: duplicate measurements, Km ATP
Method in brief: as §1

[8] = molecular target: ERK7/MAPK15 (Homo sapiens, UniProt Q8TD08); conditions: duplicate measurements, Km ATP
Method in brief: as §1

[9] = molecular target: GRK2 (Homo sapiens, UniProt P25098); conditions: duplicate measurements, Km ATP
Method in brief: as §1

[10] = molecular target: T2, PKCd (Homo sapiens, UniProt Q05655); conditions: duplicate measurements, Km ATP
T2 construct: gene PRKCD
Method in brief: as §1

[11] = molecular target: T3, MLK4 (Homo sapiens, UniProt Q5TCX8); conditions: duplicate measurements, Km ATP; read-out: % Enzyme Activity (relative to DMSO controls) / TP-0005801 (0.3µM) / Data 1
T3 construct: gene MAP3K21
Method in brief: as §1

[12] = molecular target: SYK (Homo sapiens, UniProt P43405); conditions: duplicate measurements, Km ATP
Method in brief: as §1

[13] = molecular target: CDK16/cyclin Y (PCTAIRE) (Homo sapiens, UniProt Q00536); conditions: duplicate measurements, Km ATP
Method in brief: as §1

[14] = molecular target: DAPK1 (Homo sapiens, UniProt P53355); conditions: duplicate measurements, Km ATP
Method in brief: as §1

[15] = molecular target: FLT3 (Homo sapiens, UniProt P36888); conditions: duplicate measurements, Km ATP
Method in brief: as §1

[16] = molecular target: PLK4/SAK (Homo sapiens, UniProt O00444); conditions: duplicate measurements, Km ATP
Method in brief: as §1

[17] = molecular target: CDK9/CYCLIN K (Homo sapiens, UniProt P50750); conditions: duplicate measurements, Km ATP
Method in brief: as §1

[18] = molecular target: STK16 (Homo sapiens, UniProt O75716); conditions: duplicate measurements, Km ATP
Method in brief: as §1

[19] = molecular target: MYLK4 (Homo sapiens, UniProt Q86YV6); conditions: duplicate measurements, Km ATP
Method in brief: as §1

[20] = molecular target: MST2/STK3 (Homo sapiens, UniProt Q13188); conditions: duplicate measurements, Km ATP
Method in brief: as §1

[21] = read-out: % Enzyme Activity (relative to DMSO controls) / TP-0005801 (0.3µM) / Data 1
[22] = read-out: % Enzyme Activity (relative to DMSO controls) / TP-0005801 (0.3µM) / Data 2

DAPK1, sequence (P53355 whole entry): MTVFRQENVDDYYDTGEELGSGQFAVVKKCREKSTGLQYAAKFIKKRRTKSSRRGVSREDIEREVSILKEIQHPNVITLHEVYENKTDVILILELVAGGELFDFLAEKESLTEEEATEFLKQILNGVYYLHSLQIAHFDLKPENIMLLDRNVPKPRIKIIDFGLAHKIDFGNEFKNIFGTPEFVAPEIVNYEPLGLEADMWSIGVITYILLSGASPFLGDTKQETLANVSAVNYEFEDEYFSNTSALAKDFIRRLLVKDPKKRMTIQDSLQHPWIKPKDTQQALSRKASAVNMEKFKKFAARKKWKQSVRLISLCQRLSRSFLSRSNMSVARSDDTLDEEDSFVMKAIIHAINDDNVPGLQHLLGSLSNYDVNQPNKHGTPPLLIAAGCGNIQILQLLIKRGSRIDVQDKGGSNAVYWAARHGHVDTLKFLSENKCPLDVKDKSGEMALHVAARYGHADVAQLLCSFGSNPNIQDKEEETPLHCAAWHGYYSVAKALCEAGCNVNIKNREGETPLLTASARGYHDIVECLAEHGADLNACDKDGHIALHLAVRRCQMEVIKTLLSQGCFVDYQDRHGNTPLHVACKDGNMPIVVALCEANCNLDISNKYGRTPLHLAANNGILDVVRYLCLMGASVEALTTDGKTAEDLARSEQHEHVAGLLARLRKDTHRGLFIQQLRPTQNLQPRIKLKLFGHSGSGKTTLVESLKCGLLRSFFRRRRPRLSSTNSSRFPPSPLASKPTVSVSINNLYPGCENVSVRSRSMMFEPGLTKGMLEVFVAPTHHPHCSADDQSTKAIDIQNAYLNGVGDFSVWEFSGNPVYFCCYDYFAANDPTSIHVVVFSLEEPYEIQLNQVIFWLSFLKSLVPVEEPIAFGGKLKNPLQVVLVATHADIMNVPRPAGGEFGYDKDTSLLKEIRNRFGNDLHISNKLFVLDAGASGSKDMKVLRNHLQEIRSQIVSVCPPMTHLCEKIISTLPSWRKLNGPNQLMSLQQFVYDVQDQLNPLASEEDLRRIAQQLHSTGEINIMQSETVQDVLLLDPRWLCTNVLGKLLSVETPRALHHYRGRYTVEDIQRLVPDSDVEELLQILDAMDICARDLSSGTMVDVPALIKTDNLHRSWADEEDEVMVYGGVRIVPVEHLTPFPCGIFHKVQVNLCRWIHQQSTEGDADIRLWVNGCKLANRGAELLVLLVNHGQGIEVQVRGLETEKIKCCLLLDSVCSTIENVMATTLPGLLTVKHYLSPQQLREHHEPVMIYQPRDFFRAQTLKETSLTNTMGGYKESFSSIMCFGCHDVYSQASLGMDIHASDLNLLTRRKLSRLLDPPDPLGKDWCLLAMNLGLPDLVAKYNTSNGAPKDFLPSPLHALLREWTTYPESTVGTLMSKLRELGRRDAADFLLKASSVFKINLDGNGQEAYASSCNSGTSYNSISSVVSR
BTK, sequence (Q06187 whole entry): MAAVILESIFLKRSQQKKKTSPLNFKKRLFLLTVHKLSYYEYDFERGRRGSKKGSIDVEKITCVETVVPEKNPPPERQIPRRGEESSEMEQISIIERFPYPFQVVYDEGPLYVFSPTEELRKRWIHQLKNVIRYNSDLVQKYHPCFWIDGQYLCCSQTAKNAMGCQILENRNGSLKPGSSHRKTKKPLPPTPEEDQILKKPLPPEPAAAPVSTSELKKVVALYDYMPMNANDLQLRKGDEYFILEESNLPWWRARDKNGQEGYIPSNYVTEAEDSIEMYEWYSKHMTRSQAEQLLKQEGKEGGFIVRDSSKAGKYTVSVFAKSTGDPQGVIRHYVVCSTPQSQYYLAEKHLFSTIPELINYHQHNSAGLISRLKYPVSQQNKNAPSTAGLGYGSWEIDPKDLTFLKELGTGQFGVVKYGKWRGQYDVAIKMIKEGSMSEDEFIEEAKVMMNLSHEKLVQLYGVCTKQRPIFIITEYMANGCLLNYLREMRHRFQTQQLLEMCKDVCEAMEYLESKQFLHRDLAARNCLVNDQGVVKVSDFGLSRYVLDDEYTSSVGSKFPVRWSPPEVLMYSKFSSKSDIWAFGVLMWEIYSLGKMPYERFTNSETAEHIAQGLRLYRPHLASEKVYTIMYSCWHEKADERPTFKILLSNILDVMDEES
ROCK1, sequence (Q13464 whole entry): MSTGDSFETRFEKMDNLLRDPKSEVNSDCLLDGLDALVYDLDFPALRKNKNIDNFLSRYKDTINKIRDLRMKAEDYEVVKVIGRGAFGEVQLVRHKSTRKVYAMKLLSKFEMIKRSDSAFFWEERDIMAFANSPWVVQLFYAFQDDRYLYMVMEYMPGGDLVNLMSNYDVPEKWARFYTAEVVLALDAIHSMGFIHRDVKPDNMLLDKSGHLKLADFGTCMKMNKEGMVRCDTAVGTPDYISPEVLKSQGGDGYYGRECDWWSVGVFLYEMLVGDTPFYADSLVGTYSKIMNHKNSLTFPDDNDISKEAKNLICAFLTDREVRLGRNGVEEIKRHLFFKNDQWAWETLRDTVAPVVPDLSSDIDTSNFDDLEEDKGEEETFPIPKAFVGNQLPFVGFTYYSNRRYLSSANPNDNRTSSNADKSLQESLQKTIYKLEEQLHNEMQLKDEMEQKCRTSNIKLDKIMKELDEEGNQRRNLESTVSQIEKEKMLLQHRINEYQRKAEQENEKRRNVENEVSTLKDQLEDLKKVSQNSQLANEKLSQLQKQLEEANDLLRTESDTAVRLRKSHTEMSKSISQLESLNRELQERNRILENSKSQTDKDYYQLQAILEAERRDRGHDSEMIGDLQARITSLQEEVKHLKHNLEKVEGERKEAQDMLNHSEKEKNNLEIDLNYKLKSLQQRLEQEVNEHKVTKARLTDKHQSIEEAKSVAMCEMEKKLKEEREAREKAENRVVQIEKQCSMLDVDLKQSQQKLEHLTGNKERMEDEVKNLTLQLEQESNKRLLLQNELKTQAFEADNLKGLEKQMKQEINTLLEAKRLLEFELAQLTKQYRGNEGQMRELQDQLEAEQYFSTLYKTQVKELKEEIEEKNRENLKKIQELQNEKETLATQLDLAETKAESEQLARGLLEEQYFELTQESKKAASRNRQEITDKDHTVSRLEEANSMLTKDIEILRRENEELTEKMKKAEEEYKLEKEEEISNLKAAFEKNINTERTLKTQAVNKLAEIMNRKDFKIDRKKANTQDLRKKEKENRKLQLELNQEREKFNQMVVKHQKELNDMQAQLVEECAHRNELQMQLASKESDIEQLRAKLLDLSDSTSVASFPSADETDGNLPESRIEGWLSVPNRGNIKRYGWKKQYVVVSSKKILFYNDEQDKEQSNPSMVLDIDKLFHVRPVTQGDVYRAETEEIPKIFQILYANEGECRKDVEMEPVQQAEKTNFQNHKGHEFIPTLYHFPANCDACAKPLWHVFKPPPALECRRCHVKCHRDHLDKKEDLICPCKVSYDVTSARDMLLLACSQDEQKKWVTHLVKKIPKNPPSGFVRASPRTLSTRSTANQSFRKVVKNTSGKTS
PLK2, sequence (Q9NYY3 whole entry): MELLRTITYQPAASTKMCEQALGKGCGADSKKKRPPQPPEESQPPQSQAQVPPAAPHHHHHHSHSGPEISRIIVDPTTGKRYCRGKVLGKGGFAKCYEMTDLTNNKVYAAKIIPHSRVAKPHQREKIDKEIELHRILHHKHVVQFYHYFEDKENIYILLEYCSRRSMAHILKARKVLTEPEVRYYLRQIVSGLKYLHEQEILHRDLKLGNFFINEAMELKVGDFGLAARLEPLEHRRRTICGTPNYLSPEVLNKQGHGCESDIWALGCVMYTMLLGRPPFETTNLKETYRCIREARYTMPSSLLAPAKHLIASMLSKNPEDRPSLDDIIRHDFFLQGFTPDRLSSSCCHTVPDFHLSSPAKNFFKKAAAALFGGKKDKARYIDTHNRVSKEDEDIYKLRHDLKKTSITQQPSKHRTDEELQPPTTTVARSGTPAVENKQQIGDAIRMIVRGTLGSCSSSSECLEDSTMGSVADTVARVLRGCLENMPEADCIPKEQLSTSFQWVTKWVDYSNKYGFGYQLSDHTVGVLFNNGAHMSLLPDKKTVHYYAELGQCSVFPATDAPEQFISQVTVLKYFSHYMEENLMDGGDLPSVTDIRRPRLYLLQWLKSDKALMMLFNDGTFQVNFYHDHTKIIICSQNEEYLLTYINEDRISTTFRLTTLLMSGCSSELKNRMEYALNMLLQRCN
MYLK4, sequence (Q86YV6 whole entry): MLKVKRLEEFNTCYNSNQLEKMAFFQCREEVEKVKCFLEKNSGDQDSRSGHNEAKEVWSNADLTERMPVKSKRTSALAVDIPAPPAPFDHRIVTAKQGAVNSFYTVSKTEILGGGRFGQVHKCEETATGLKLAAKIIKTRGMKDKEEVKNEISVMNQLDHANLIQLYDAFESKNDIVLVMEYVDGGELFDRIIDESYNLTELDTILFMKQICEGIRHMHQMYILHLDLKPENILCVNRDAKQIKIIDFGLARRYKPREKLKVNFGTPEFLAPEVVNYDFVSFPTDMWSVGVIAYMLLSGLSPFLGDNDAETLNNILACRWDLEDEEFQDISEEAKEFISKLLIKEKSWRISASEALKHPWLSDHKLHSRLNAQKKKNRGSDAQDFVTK
MST2/STK3, sequence (Q13188 whole entry): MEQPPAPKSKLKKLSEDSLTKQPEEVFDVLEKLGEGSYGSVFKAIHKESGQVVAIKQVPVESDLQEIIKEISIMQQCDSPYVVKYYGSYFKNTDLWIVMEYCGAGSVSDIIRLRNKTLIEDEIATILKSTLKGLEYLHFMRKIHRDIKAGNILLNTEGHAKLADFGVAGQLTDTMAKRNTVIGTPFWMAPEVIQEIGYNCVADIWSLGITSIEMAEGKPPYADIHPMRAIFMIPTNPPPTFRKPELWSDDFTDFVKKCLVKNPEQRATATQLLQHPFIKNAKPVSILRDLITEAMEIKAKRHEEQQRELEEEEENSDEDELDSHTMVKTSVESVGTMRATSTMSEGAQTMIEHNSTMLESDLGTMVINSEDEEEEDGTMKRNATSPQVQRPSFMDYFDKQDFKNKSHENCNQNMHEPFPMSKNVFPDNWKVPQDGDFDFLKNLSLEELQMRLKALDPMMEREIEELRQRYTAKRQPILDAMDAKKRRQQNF

- remaining activity at 0.3 µM [1, 21]: 3.64%
- remaining activity at 0.3 µM [1, 22]: 3.52%
- remaining activity at 0.3 µM [2, 21]: 93.6%
- remaining activity at 0.3 µM [2, 22]: 92.1%
- remaining activity at 0.3 µM [3, 21]: 55.6%
- remaining activity at 0.3 µM [3, 22]: 48.5%
- remaining activity at 0.3 µM [4, 21]: 94.9%
- remaining activity at 0.3 µM [4, 22]: 93.4%
- remaining activity at 0.3 µM [5, 21]: 99.8%
- remaining activity at 0.3 µM [5, 22]: 96.7%
- remaining activity at 0.3 µM [6, 21]: 84%
- remaining activity at 0.3 µM [6, 22]: 83.9%
- remaining activity at 0.3 µM [7, 21]: 104%
- remaining activity at 0.3 µM [7, 22]: 100%
- remaining activity at 0.3 µM [9, 21]: 93%
- remaining activity at 0.3 µM [9, 22]: 91.7%
- remaining activity at 0.3 µM [10, 21]: 113%
- remaining activity at 0.3 µM [10, 22]: 99.7%
- remaining activity at 0.3 µM [11]: 106%
- remaining activity at 0.3 µM [12, 21]: 77.6%
- remaining activity at 0.3 µM [12, 22]: 77.5%
- remaining activity at 0.3 µM [13, 21]: 99.8%
- remaining activity at 0.3 µM [13, 22]: 97.2%
- remaining activity at 0.3 µM [14, 21]: 102%
- remaining activity at 0.3 µM [14, 22]: 101%
- remaining activity at 0.3 µM [15, 21]: 3.9%
- remaining activity at 0.3 µM [15, 22]: 3.79%
- remaining activity at 0.3 µM [16, 21]: 74.8%
- remaining activity at 0.3 µM [16, 22]: 72.8%
- remaining activity at 0.3 µM [17, 21]: 108%
- remaining activity at 0.3 µM [17, 22]: 105%
- remaining activity at 0.3 µM [18, 21]: 107%
- remaining activity at 0.3 µM [18, 22]: 105%
- remaining activity at 0.3 µM [19, 21]: 108%
- remaining activity at 0.3 µM [19, 22]: 96.9%
- remaining activity at 0.3 µM [20, 21]: 97.7%
- remaining activity at 0.3 µM [20, 22]: 97.5%
SMILES: COc1cc(N2CCN(C)CC2)c(C)cc1Nc1ncc(Br)c(Nc2cccnc2N(C)C)n1 [TP-5801]
- remaining activity at 0.3 µM [8, 21]: 97.2%
- remaining activity at 0.3 µM [8, 22]: 96.4%
